From publication PMC5011342, “A high throughput drug screening assay to identify compounds that promote oligodendrocyte differentiation using acutely dissociated and purified oligodendrocyte precursor cells” (BMC Research Notes, 2016)
Counter-ions that a name gives are not always drawn. Like-named read-outs stand apart in the source and are kept apart here.

Assays:
[1] = system: acutely dissociated and purified rat OPCs; assay: Acute OL differentiation assay (MBP expression/cell, immunofluorescent image quantification); format: cell-based; details: for activation at 2 µM / activation at 10 µM / activation at 0.08 µM / activation at 0.4 µM: Rattus norvegicus; for activation at 0.08 µM: test compound at 0.08 uM, read-out: 0.08 uM (% Quet); for activation at 0.4 µM: test compound at 0.4 uM, read-out: 0.4 uM (% Quet)
Summary of the method: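 This acute differentiation assay used purified rat OPCs from postnatal day 6–7 pups, seeded into PDL/laminin-coated 96-well plates in differentiation medium lacking PDGF and FGF. Compounds were applied in quadruplicate after a 1–2 h preincubation at 37 °C, 10 % CO2, with 0.1 % DMSO negative and 40 ng/ml T3 positive controls in eight wells. After fixation on DIV4, anti-MBP immunofluorescence images yielded MBP expression/cell.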

[2] = system: expanded OPCs; assay: cells; details: for viability at 0.1 µM / viability at 1 µM / viability at 10 µM: Rattus norvegicus, 72 h
Summary of the method: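 Toxicity screen: compounds added at 0.1, 1 and 10 µM to PDGF-AA-expanded OPCs in 96-well plates, 3-day incubation at 37 °C, 10% CO2, then alamarBlue 1:10 for 4 h with fluorescence readout. Results set screening doses of 10/2, 2/0.4 or 0.4/0.08 µM.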

[3] = 2 uM test compound, relative to quetiapine, sheet "All OLga data", read-out: OL differentiation, 2 uM (% Quet)
[4] = 10 uM test compound, relative to quetiapine, sheet "All OLga data", read-out: OL differentiation, 10 uM (% Quet)
[5] = read-out: 0.1 µM (% DMSO), alamarBlue viability of expanded OPCs, compound at 0.1 µM, sheet All Tox data
[6] = read-out: 1 µM (% DMSO), alamarBlue viability of expanded OPCs, compound at 1 µM, sheet All Tox data
[7] = read-out: 10 µM (% DMSO), alamarBlue viability of expanded OPCs, compound at 10 µM, sheet All Tox data
[8] = test compound at 2 uM, NCC library screen, sheet "All OLga data", relative to quetiapine, read-out: 2 uM (% Quet)
[9] = test compound at 10 uM, NCC library screen, sheet "All OLga data", relative to quetiapine, read-out: 10 uM (% Quet)
[10] = alamarBlue viability of expanded OPCs, compound at 0.1 µM, relative to DMSO control
[11] = alamarBlue viability of expanded OPCs, compound at 1 µM, relative to DMSO control
[12] = alamarBlue viability of expanded OPCs, compound at 10 µM, relative to DMSO control
[13] = MBP expression relative to quetiapine, NCC library screen, sheet "All OLga data"
[14] = NCC library screen, sheet "All OLga data", relative to quetiapine
[15] = read-out: 0.1 µM (% DMSO), alamarBlue viability, NCC library compound at 0.1 µM, sheet "All Tox data"
[16] = read-out: 1 µM (% DMSO), alamarBlue viability, NCC library compound at 1 µM, sheet "All Tox data"
[17] = read-out: 10 µM (% DMSO), alamarBlue viability, NCC library compound at 10 µM, sheet "All Tox data"

SMILES: CC(=O)[C@H]1CC[C@H]2[C@@H]3CCC4=CC(=O)CC[C@]4(C)[C@H]3CC[C@]12C [Progesterone]
- activation at 2 µM [1, 3]: 21.9%
- activation at 10 µM [1, 4]: 23.3%
- viability at 0.1 µM [2, 5]: 88.2%
- viability at 1 µM [2, 6]: 102%
- viability at 10 µM [2, 7]: 113%

SMILES: NS(=O)(=O)c1cc(C(=O)O)c(NCc2ccco2)cc1Cl [Furosemide]
- activation at 2 µM [1, 8]: 6%
- activation at 10 µM [1, 9]: -6%
- 0.1 µM (% DMSO) [2, 10]: 87.5 % DMSO
- 1 µM (% DMSO) [2, 11]: 91.0 % DMSO
- 10 µM (% DMSO) [2, 12]: 97.3 % DMSO

SMILES: CO[C@H]1O[C@@H]2O[C@@]3(C)CC[C@H]4[C@H](C)CC[C@@H]([C@H]1C)[C@@]24OO3 [Artemethe]
- 2 uM (% Quet) ([1]; test compound at 2 uM, NCC library screen, sheet "All OLga data", relative to quetiapine): -5.4 % Quet
- 10 uM (% Quet) ([1]; test compound at 10 uM, NCC library screen, sheet "All OLga data", relative to quetiapine): -21.6 % Quet
- 0.1 µM (% DMSO) ([2]; alamarBlue viability, NCC library compound at 0.1 µM, sheet "All Tox data"): 81.3 % DMSO
- 1 µM (% DMSO) ([2]; alamarBlue viability, NCC library compound at 1 µM, sheet "All Tox data"): 76.5 % DMSO
- 10 µM (% DMSO) ([2]; alamarBlue viability, NCC library compound at 10 µM, sheet "All Tox data"): 77.8 % DMSO

SMILES: Cc1ccnc2c1NC(=O)c1cccnc1N2C1CC1 [Nevirapine]
- activation at 2 µM [1, 3]: 0.24%
- activation at 10 µM [1, 4]: 15.9%
- viability at 0.1 µM [2, 5]: 93.7%
- viability at 1 µM [2, 6]: 90.2%
- viability at 10 µM [2, 7]: 93.3%

SMILES: CNCCC(Oc1ccc(C(F)(F)F)cc1)c1ccccc1 (stereo not shown) [Fluoxetine hydrochloride]
- activation at 0.08 µM [1, 13]: 13%
- activation at 0.4 µM [1, 13]: 10.7%
- 0.1 µM (% DMSO) [2, 10]: 77.4 % DMSO
- 1 µM (% DMSO) [2, 11]: 42.2 % DMSO
- 10 µM (% DMSO) [2, 12]: 7.9 % DMSO

SMILES: CN(C)CCCN1c2ccccc2Sc2ccc(Cl)cc21 [Chlorpromazine]
- activation at 0.08 µM [1, 14]: 7.4%
- activation at 0.4 µM [1, 14]: -44.8%
- viability at 0.1 µM [2, 15]: 67.2%
- viability at 1 µM [2, 16]: 38.2%
- viability at 10 µM [2, 17]: 10.5%

SMILES: CCN(CC)CCOC(=O)C(O)(c1ccccc1)c1ccccc1 [Benactyzine]
- activation at 2 µM ([1]; read-out: 2 uM (% Quet)): -1.9%
- activation at 10 µM ([1]; read-out: 10 uM (% Quet)): -2.1%
- viability at 0.1 µM ([2]; read-out: 0.1 µM (% DMSO)): 100%
- viability at 1 µM ([2]; read-out: 1 µM (% DMSO)): 88.2%
- viability at 10 µM ([2]; read-out: 10 µM (% DMSO)): 90%

SMILES: Cc1cnc(C(=O)NCCc2ccc(S(=O)(=O)NC(=O)NC3CCCCC3)cc2)cn1 [Glipizide]
- activation at 2 µM [1, 8]: 6.4%
- activation at 10 µM [1, 9]: 8.4%
- 0.1 µM (% DMSO) [2, 10]: 88.0 % DMSO
- 1 µM (% DMSO) [2, 11]: 86.3 % DMSO
- 10 µM (% DMSO) [2, 12]: 83.0 % DMSO

SMILES: Clc1ccc2nsnc2c1NC1=NCCN1 [Tizanidine]
- activation at 2 µM ([1]; test compound at 2 uM, MBP expression relative to quetiapine, NCC library screen, sheet "All OLga data", read-out: 2 uM (% Quet)): 13.7%
- activation at 10 µM ([1]; test compound at 10 uM, MBP expression relative to quetiapine, NCC library screen, sheet "All OLga data", read-out: 10 uM (% Quet)): -4.2%
- 0.1 µM (% DMSO) [2, 10]: 92.8 % DMSO
- 1 µM (% DMSO) [2, 11]: 97.3 % DMSO
- 10 µM (% DMSO) [2, 12]: 87.9 % DMSO

SMILES: CCCCC(=O)N(Cc1ccc(-c2ccccc2-c2nnn[nH]2)cc1)[C@H](C(=O)O)C(C)C [Valsartan]
- activation at 2 µM [1, 3]: 10.7%
- activation at 10 µM [1, 4]: -1%
- viability at 0.1 µM [2, 15]: 86.6%
- viability at 1 µM [2, 16]: 84%
- viability at 10 µM [2, 17]: 82.9%

SMILES: CN(C)c1nc(N(C)C)nc(N(C)C)n1 [Altretamine]
- activation at 2 µM [1, 8]: -1.1%
- activation at 10 µM [1, 9]: -13.9%
- viability at 0.1 µM [2, 15]: 94.2%
- viability at 1 µM [2, 16]: 87.4%
- viability at 10 µM [2, 17]: 85%

SMILES: CN1[C@@H]2CC[C@H]1C[C@@H](OC(=O)c1c[nH]c3ccccc13)C2 [Tropisetron]
- activation at 2 µM [1, 3]: 37.9%
- activation at 10 µM [1, 4]: 16.9%
- viability at 0.1 µM [2, 5]: 98.4%
- viability at 1 µM [2, 6]: 90.9%
- viability at 10 µM [2, 7]: 82.5%

SMILES: NCCc1ccccn1 [2-(2-aminoethyl)pyridine]
- activation at 2 µM [1, 8]: 20.5%
- activation at 10 µM [1, 9]: 16.9%
- viability at 0.1 µM [2, 15]: 97.5%
- viability at 1 µM [2, 16]: 81.9%
- viability at 10 µM [2, 17]: 73.2%

SMILES: CN(C)[C@@H]1C(O)=C(C(N)=O)C(=O)[C@@]2(O)C(O)=C3C(=O)c4c(O)cccc4C[C@H]3C[C@@H]12 [Sancycline]
- activation at 2 µM [1, 8]: 1.8%
- activation at 10 µM [1, 9]: 27.4%
- 0.1 µM (% DMSO) [2, 10]: 88.7 % DMSO
- 1 µM (% DMSO) [2, 11]: 89.0 % DMSO
- 10 µM (% DMSO) [2, 12]: 83.0 % DMSO
